# Results as given in US10932484B2, “Inhibitory activity of acetogenins against Listeria monocytogenes” (INSTITUTO TECHNOLOGICO Y DE ESTUDIOS SUPERIORES DE MONTERREY, priority 2016, dated 2021).
# Columns and labels:
# [1] = test system: Listeria monocytogenes (ATCC 35152); assay: Disc diffusion assay; assay type: cell-based; conditions: for Inhibition zones of isolated acetogenins (in words): isolated molecules at 15 μg disc^−1, 37° C., 24 h; for Potency relative to Mirenat® in disc diffusion: 15 μg disc^−1 vs Mirenat® at 15 μg disc^−1 LAE
# Experimental: Listeria monocytogenes (ATCC 35152) was acquired from the American Type Culture Collection (Manassas, Va., USA). For experimentation, frozen stocks were first activated in Brain Heart Infusion (BHI) broth (Becton, Dickinson and Co., Franklin Lakes, N.J., USA) for 16-18 h at 37° C. A sub-culture was prepared under the same growth conditions to 3⁄4 log phase (6-7 h). At this stage, cells were adjusted with BHI to an initial optical density (OD) at 600 nm of 0.15, which corresponded to 8×10^6 CFU mL^-1 and served as the inoculum for the following antimicrobial assays. Aliquots (100 μL) of the cell suspension described above were evenly spread with a sterile plastic rod on the surface of agar plates. Sterile filter paper disks (Whatman No. 1, 6 mm) were impregnated with aliquots (5 μL) of the antimicrobial solution (EAE, Avosafe® and isolated acetogenins) freshly prepared at 3000 ppm in 96% food grade ethanol to delivered 15 μg disc^-1 of active compounds. All solutions were sonicated for 5 min (Branson 2510, Branson Ultrasonics, Danbury, Conn., USA) and vortexed for 30 s before dispensing the corresponding volumes. The disks were air-dried for approximately 1 h in a biological safety cabinet before placed into the inoculated plate. Antimicrobials were tested in triplicate, one disk per plate to account for plate variability. Vehicle and positive controls were also incorporated into each plate and contemplated 5 μl of 96% ethanol and […]® at 3000 ppm LAE in sterile deionized water. Each plate contained at most six disks evenly distributed. Plates were incubated for 24 h at 37° C. After, diameters of inhibition zones were measured to the nearest millimeter.
# [2] = test system: Listeria monocytogenes (ATCC 35152); assay: Minimum inhibitory concentration (MIC) and minimum bactericidal concentration (MBC), broth dilution; assay type: cell-based; conditions: 37° C.; for MBC/MIC ratio: ≤4 bactericidal, >4 bacteriostatic; for MBC / MIC: Listeria monocytogenes, ATCC35152, 24 h
# Experimental: Listeria monocytogenes (ATCC 35152) was acquired from the American Type Culture Collection (Manassas, Va., USA). For experimentation, frozen stocks were first activated in Brain Heart Infusion (BHI) broth (Becton, Dickinson and Co., Franklin Lakes, N.J., USA) for 16-18 h at 37° C. A sub-culture was prepared under the same growth conditions to ¾ log phase (6-7 h). At this stage, cells were adjusted with BHI to an initial optical density (OD) at 600 nm of 0.15, which corresponded to 8×10^6 CFU mL^−1 and served as the inoculum for the following antimicrobial assays.
# Stock solutions (25000-5000 ppm) of EAE, Avosafe® and isolated molecules were prepared in ≥99.5% food-grade propylene glycol (PG) (Sigma Aldrich, St. Louis, Mo., USA) and stored in brown vials at −80° C. Working solutions in culture media were prepared from room temperature acclimatized stock solutions that were sonicated (5 min) and vortexed (30 s) as described above. Culture medium was adjusted to 4% w/v PG to account for the effect of the vehicle in all concentrations tested and sets of experiments. Prior tests were conducted to confirm that 4% PG had no effect on growth. Serial 2-fold dilutions of samples, in a range of concentrations from 125 to 0.98 ppm, were prepared in sterile 96-well clear polystyrene microplates (Cat. No. 3370, Corning, Corning, N.Y., USA) or disposable test tubes (VWR, Radnor, Pa., USA) to a final volume of 300 μL or 1 mL, respectively. The experimentation scale was determined by the amount of test product available. Each well or tube was inoculated with 10% v/v liquid phase of the cell suspension (OD600 nm 0.15) as previously described. A growth control (no antimicrobial added), an aseptic control (uninoculated), and a positive control (Mirenat®) were also examined. After 24 h at 37° C., the MIC was defined as the lowest concentration at which no visual growth was assessed by turbidity (Levison, M. E., “Pharmacodynamics of Antimicrobial Drugs,” Infect. Dis. Clin. North. Am. 18(3):451-65 (2004), which is hereby incorporated by reference in its entirety). […] Then, the pellet was resuspended in antimicrobial-free medium and incubated for 24 h at 37° C. The MBC was defined as the lowest concentration showing no growth (Levison, M. E., “Pharmacodynamics of Antimicrobial Drugs,” Infect. Dis. Clin. North. Am. 18(3):451-65 (2004), which is hereby incorporated by reference in its entirety). All tests were independently replicated (n=3) and performed with technical triplicates.
# [3] = Effect of thermal processing and storage on acetogenins concentration in sausages; assay type: physicochemical; conditions: sausages with 10,000 ppm Avosafe®, cooking and pasteurization
# From the text: Effect of thermal processing and storage on acetogenins concentration. Acetogenins in sausages (Treatment A: un-cooked, day 0 and 90) were extracted and quantified as reported by Salinas-Salazar et al, “Inhibitory Activity of Avocado Seed Fatty Acid Derivatives (Acetogenins) Against Listeria Monocytogenes” J Food Sci 82: 134-44 (2016), which is hereby incorporated by reference in its entirety, with some modifications. Three grams (3 g) of sample were homogenized with acetone (1:5, w/v) using an Ultra-Turrax T25 homogenizer (IKA Works, Willmington, N.C., USA.) at 11000 rpm for 3 min, sonicated for 5 min, and centrifuged at 3600 rpm for 6 min (5° C.). Supernatants were collected and the precipitated material was extracted again two times, as mentioned above. After, supernatants were mixed and the solvent was evaporated at 35° C. using a rotary evaporator (Büchi R-210, Büchi Labortechnik AG, Switzerland) under high vacuum (22 in Hg). Residue was partitioned in 10 mL hexane:methanol (1:1). After 30 s of vortex, phases were separated by centrifugation (4000 rpm, 10 min) and the lower phase (methanol) was recovered and washed two more times with hexane, taken to dryness under nitrogen gas, resuspended in 1 mL isopropanol and passed through a 0.45 μm PTFE filter prior to HPLC injection. Agilent HPLC systems (Santa Clara, Calif., USA) 1260 Infinity series coupled to a G4212B photodiode array detector (PDA) and an evaporative light scattering detector G4218A was used. The PDA detector was set at 220 and 208 nm (Rodríguez-López, “A Targeted Metabolomics Approach to Characterize Acetogenin Profiles in Avocado Fruit (Persea americana Mill.)” RSC Adv 5: 106019-29 (2015), which is hereby incorporated by reference in its entirety).
# C. sporogenes = conditions: cited from earlier work
# [4] = lactating mice; cited from earlier work
# [5] = dose of 100 mg kg^−1 of body weight; cited from earlier work
compound,measurement,setting,value
"C#CCC/C=C/CCCCCCC[C@H](O)CC(O)COC(C)=O (stereo in doubt) [AcO-avocadenyne, 1-acetoxy-2,4-dihydroxy-heptadec-12-en-16-yne]",Antimicrobial activity relative to AcO-avocadene,"[1]; 15 μg disc^−1, FIG. 4",4 times
same,MBC/MIC ratio,[2],2
same,MBC,[2],31.2 µg/mL
same,MIC,[2],15.6 µg/mL
"C=CCCCCCCCCCCC[C@H](O)C[C@H](O)COC(C)=O [AcO-avocadene, (2S,4S)-1-acetoxy-2,4-dihydroxy-n-heptadeca-16-ene]",Inhibition zones of isolated acetogenins (in words),[1],least potent
same,Processing losses compared to unprocessed control (in words),[3],no statistically significant
"C=CCCCCCCCCCC=CC(O)CC(O)COC(C)=O (stereo not drawn) [AcO-avocadiene A, 1-Acetoxy-2,4-dihydroxy-heptadeca-5,16-diene]",Inhibition zones of isolated acetogenins (in words),[1],did not produce inhibition zones
same,Processing losses compared to unprocessed control (in words),[3],no statistically significant
"C#CCCCCCCCCCCCC(O)CC(O)COC(C)=O (stereo not drawn) [AcO-avocadyne, 1-acetoxy-2,4-dihydroxy-heptadec-16-yne]",Inhibition zones of isolated acetogenins (in words),[1],did not produce inhibition zones
"CCCCC/C=C\C/C=C\CCCCC/C=C/C(=O)C[C@@H](O)COC(C)=O [Persenone A, (2R,5E,12Z,15Z)-1-acetoxy-2-hydroxy-4-oxoheneicosa-5,12,15-triene]",Potency relative to Mirenat® in disc diffusion,[1],around 3 fold
same,Inhibition zones of isolated acetogenins (in words),[1],highest inhibition zones
same,MBC/MIC ratio,[2],2
same,MBC,[2],15.6 µg/mL
same,MIC,[2],7.8 µg/mL
same,Processing losses compared to unprocessed control (in words),[3],no statistically significant
"CCCCCCCCCCCCC/C=C/C(=O)C[C@@H](O)COC(C)=O [Persenone B, (5E)-1-acetoxy-2-hydroxy-4-oxononadeca-5-ene]",Processing losses compared to unprocessed control (in words),[3],no statistically significant
"CC/C=C/CCCCCCCCC/C=C/C(=O)C[C@@H](O)COC(C)=O [Persenone C, (2R,5E,16E)-1-acetoxy-2-hydroxy-4-oxononadeca-5,16-diene]",Potency relative to Mirenat® in disc diffusion,[1],around 3 fold
same,Inhibition zones of isolated acetogenins (in words),[1],highest inhibition zones
"CCCCC/C=C\C/C=C\CCCCCCCC(=O)C[C@@H](O)COC(C)=O [Persin, (2R,12Z,15Z)-1-acetoxy-2-hydroxy-4-oxoheneicosa-12,15-diene]",Antimicrobial activity against C. sporogenes (in words),C. sporogenes,minimal
same,Toxic acute doses,[4],60-100 mg kg^−1 body weight
same,Effect in liver injury (in words),[5],protective effect
